Measurements: PubChem BioAssay (NCI)
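48-hour exposure; five concentrations; linearly interpolated endpoints. TGI is the concentration that stops growth completely.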

What was measured:
Assay in all cases: inhibition of tumour cell growth, NCI panel, 48 h
[1] = system: KM12 colon
[2] = system: XF 498 CNS
[3] = system: OVCAR-5 ovarian
[4] = system: DLD-1 colon
[5] = system: SK-MEL-28 melanoma
[6] = system: SNB-75 CNS
[7] = system: NCI-H460 lung
[8] = system: EKVX NSCLC
[9] = system: IGROV1 ovarian
[10] = system: HOP-18 NSCLC
[11] = system: DMS 114 small cell lung
[12] = system: SK-OV-3 ovarian
[13] = system: CCRF-CEM leukemia
[14] = system: OVCAR-4 ovarian
[15] = system: K-562 leukemia
[16] = system: NCI-H226 lung
[17] = system: HL-60(TB) leukemia
[18] = system: HCT-116 colon
[19] = system: HT29 colon
[20] = system: SF-295 CNS
[21] = system: UACC-257 melanoma
[22] = system: SNB-78 CNS
[23] = system: HCT-15 colon
[24] = system: RPMI-8226 leukemia
[25] = system: COLO 205 colon
[26] = system: DMS 273 small cell lung
[27] = system: M19-MEL melanoma
[28] = system: 786-0 renal
[29] = system: UACC-62 melanoma
[30] = system: SNB-19 CNS
[31] = system: SR leukemia
[32] = system: SN12C renal
[33] = system: M14 melanoma
[34] = system: U251 CNS
[35] = system: OVCAR-3 ovarian
[36] = system: MOLT-4 leukemia
[37] = system: NCI-H522 lung
[38] = system: MALME-3M melanoma
[39] = system: A549 NSCLC
[40] = system: SK-MEL-2 melanoma
[41] = system: OVCAR-8 ovarian
[42] = system: UO-31 renal
[43] = system: LXFL 529 NSCLC
[44] = system: A498 renal
[45] = system: RXF 393 renal
[46] = system: SF-268 CNS
[47] = system: HOP-62 NSCLC
[48] = system: HCC-2998 colon
[49] = system: LOX IMVI melanoma
[50] = system: NCI-H23 lung
[51] = system: SW-620 colon
[52] = system: CAKI-1 renal
[53] = system: TK-10 renal
[54] = system: KM20L2 colon
[55] = system: HOP-92 NSCLC
[56] = system: ACHN renal
[57] = system: SK-MEL-5 melanoma
[58] = system: SF-539 CNS
[59] = system: RXF-631 renal

For `N#CC1CC(c2ccccc2)Nc2cc(Cl)ccc2N1` (stereo not drawn), the TGI [1] was > 100 µM, the TGI [2] was 92 µM and the TGI [3] was > 100 µM. For the same compound, the TGI [4] was > 100 µM, the TGI [5] was > 100 µM and the TGI [6] was > 100 µM. The TGI [7] was > 100 µM, the TGI [8] was > 100 µM and the TGI [9] was > 100 µM. The TGI [10] was > 100 µM, the TGI [11] was 97.3 µM and the TGI [12] was > 100 µM. For the same compound, the TGI [13] was > 100 µM, the TGI [14] was > 100 µM and the TGI [15] was > 100 µM. For the same compound, the TGI [16] was > 100 µM, the TGI [17] was > 100 µM and the TGI [18] was > 100 µM. For the same compound, the TGI [19] was > 76.2 µM, the TGI [20] was > 100 µM and the TGI [21] was > 100 µM. The TGI [22] was > 100 µM, the TGI [23] was > 100 µM and the TGI [24] was > 100 µM. The TGI [25] was > 83.4 µM, the TGI [26] was > 100 µM and the TGI [27] was > 100 µM. For the same compound, the TGI [28] was > 100 µM, the TGI [29] was > 100 µM and the TGI [30] was > 100 µM. For the same compound, the TGI [31] was 59.8 µM, the TGI [32] was > 100 µM and the TGI [33] was > 100 µM. For the same compound, the TGI [34] was > 100 µM, the TGI [35] was 57.1 µM and the TGI [36] was > 100 µM. For the same compound, the TGI [37] was 21.7 µM, the TGI [38] was > 100 µM and the TGI [39] was > 100 µM. The TGI [40] was > 89.2 µM, the TGI [41] was > 100 µM and the TGI [42] was > 100 µM. The TGI [43] was > 100 µM, the TGI [44] was > 100 µM and the TGI [45] was 98.7 µM. The TGI [46] was > 100 µM, the TGI [47] was > 100 µM and the TGI [48] was > 100 µM. The TGI [49] was > 100 µM, the TGI [50] was > 83.7 µM and the TGI [51] was > 100 µM. The TGI [52] was > 100 µM, the TGI [53] was > 100 µM and the TGI [54] was > 100 µM. For the same compound, the TGI [55] was > 100 µM, the TGI [56] was > 100 µM and the TGI [57] was > 100 µM. The TGI [58] was > 100 µM.

In the case of `CCOC(=O)c1ccc(N=Nc2ccc(N(CCC#N)CCC#N)cc2C)cc1`, the TGI [1] is reported as > 100 µM, the TGI [3] is reported as > 100 µM and the TGI [4] is reported as > 100 µM. For the same compound, the TGI [8] was > 100 µM, the TGI [9] was > 100 µM and the TGI [10] was > 100 µM. The TGI [11] was > 100 µM, the TGI [12] was > 100 µM and the TGI [13] was > 100 µM. The TGI [59] was > 100 µM, the TGI [14] was > 100 µM and the TGI [15] was > 100 µM. The TGI [16] was > 100 µM, the TGI [17] was > 100 µM and the TGI [19] was > 100 µM. The TGI [20] was > 100 µM, the TGI [21] was > 100 µM and the TGI [22] was > 100 µM. The TGI [23] was > 100 µM, the TGI [24] was > 100 µM and the TGI [25] was > 100 µM. For the same compound, the TGI [26] was > 100 µM, the TGI [27] was > 100 µM and the TGI [28] was > 100 µM. For the same compound, the TGI [29] was > 100 µM, the TGI [30] was > 100 µM and the TGI [32] was > 100 µM. The TGI [33] was > 100 µM, the TGI [34] was > 100 µM and the TGI [35] was > 100 µM. For the same compound, the TGI [36] was > 100 µM, the TGI [37] was > 100 µM and the TGI [38] was > 100 µM. For the same compound, the TGI [39] was > 100 µM, the TGI [40] was > 100 µM and the TGI [41] was > 100 µM. For the same compound, the TGI [42] was > 100 µM, the TGI [43] was > 100 µM and the TGI [44] was > 100 µM. The TGI [45] was > 100 µM, the TGI [47] was > 100 µM and the TGI [48] was > 100 µM. The TGI [49] was > 100 µM, the TGI [50] was > 100 µM and the TGI [51] was > 100 µM. For the same compound, the TGI [52] was > 100 µM, the TGI [53] was > 100 µM and the TGI [56] was > 100 µM. The TGI [57] was > 100 µM and the TGI [58] was > 100 µM.
